{"source": "paper PMC7749107", "about": "“Identification and functional characterization of the first molluscan neuromedin U receptor in the slug, Deroceras reticulatum” (Scientific Reports, 2020)", "key": {"[1]": {"molecular_target": "T1, DretNmU-Rb (Deroceras reticulatum, UniProt A0A888YNJ5)", "T1 sequence (A0A888YNJ5 1-502)": "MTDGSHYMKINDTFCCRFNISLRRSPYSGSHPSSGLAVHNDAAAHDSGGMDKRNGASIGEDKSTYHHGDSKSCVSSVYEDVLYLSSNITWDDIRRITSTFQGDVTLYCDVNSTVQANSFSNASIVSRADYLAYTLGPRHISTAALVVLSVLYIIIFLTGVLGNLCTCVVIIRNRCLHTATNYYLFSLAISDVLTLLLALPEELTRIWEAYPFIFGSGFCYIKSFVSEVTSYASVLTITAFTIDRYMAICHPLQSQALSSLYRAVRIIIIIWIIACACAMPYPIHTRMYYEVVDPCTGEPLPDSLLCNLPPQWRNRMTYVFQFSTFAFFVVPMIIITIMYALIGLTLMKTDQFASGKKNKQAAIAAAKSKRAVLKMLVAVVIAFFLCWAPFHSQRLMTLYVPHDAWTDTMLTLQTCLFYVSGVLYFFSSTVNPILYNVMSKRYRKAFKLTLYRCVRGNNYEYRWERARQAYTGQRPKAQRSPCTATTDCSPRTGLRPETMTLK", "assay": "Calcium mobilisation (FLIPR Calcium 6 fluorescence) receptor activation assay, Sf9 cells stably expressing DretNmU-Rb", "type": "cell-based", "conditions": "for Binding activity (receptor response, ∆fluorescence) at single concentration: 500 nM peptide, three to four replicates, result in words", "description": "(§1) Sf9 cells were cultured in a 50 ml-Erlenmeyer flask while shaking at 145 rpm at 28 °C using Insectagro Sf9 Medium (Corning) supplemented with 5% heat-inactivated fetal bovine serum (HyClone, USA) and antibiotics (penicillin and streptomycin; Gibco). Three µg of either pIB/DretNmU-Ra or pIB/DretNmU-Rb plasmid was added to 100 μl of serum-free medium, and 15% CellFectin II (Invitrogen) in 100 μl serum-free medium was prepared, and both were placed at room temperature for 5 min. Samples were combined by pipetting and placed at room temperature for another 20 min. The plasmid-CellFectin II mixture was then added to a T-25 flask containing a layer of Sf9 cells covering about 70% of the surface, and incubated overnight. The next morning, the medium was replaced with fresh medium containing 50 μg/ml blasticidin. […] When culture was confluent, the recombinant cells were lifted and transferred to suspension cultures and grown until the exponential growth phase, and then stock cultures were frozen in liquid nitrogen. These frozen stock cell lines were thawed, cultivated for several passages in media containing 20 μg/ml blasticidin, and used for the ligand binding assays.\n(§2) Two days before the binding assay, ~ 50,000 Sf9 cells expressing the DretNmU-Ra or -Rb from suspension cultures were dispensed into each well of a black 96-well plate (Corning C3603) and incubated at 28 °C overnight. At 48 h, cells were rinsed once with 100 μl of fresh medium without FBS. After removing the media, cells were incubated with 95 μl of 1 × FLIPR Calcium 6 reagent (Molecular Devices, USA) containing 2.5 mM probenecid at room temperature in the dark for 1 h. The Calcium 6 reagent-loaded cells were transferred to the Flexstation 3 multi-mode microplate reader (Molecular Devices) to measure fluorescence change (∆fluorescence) before and after loading 5 μl of peptide ligands (20×), detecting emission at 535 nm with excitation at 485 nm. Fluorescence measurements from each well on the column were taken every 5 s for 4 min. The peptide ligand was added by automatic pipettor once at 30 s from the beginning, and 5 μl of 5 μM ionomycin was added at 3 min to confirm calcium activity. Baseline fluorescence was determined by averaging 5 time points from each well prior to treatment with ligand and the resulting response was expressed as a percent increase in fluorescence relative to the baseline value.\n(§3) For the initial screening and structure–activity tests, each cell line was exposed to a single concentration of 500 nM of each peptide or control. For the dosage-response assay, threefold serial dilutions of selected ligands with water were used, giving final ligand concentrations between 8 pM and 1.5 μM. The mean response from four wells receiving the same treatment in the same plate was regarded as one replicate, and at least three replicates from independent assays on different cell plates were analyzed. Data were transformed into a log scale and fit into the non-linear regression curve. EC50 values were obtained by statistical analysis using the sum of squares F-test function using GraphPad Prism version 8.0 (San Diego, CA, USA)."}, "[2]": {"molecular_target": "T2, DretNmU-Ra (Deroceras reticulatum, UniProt A0A888YNE3)", "T2 sequence (A0A888YNE3 1-505)": "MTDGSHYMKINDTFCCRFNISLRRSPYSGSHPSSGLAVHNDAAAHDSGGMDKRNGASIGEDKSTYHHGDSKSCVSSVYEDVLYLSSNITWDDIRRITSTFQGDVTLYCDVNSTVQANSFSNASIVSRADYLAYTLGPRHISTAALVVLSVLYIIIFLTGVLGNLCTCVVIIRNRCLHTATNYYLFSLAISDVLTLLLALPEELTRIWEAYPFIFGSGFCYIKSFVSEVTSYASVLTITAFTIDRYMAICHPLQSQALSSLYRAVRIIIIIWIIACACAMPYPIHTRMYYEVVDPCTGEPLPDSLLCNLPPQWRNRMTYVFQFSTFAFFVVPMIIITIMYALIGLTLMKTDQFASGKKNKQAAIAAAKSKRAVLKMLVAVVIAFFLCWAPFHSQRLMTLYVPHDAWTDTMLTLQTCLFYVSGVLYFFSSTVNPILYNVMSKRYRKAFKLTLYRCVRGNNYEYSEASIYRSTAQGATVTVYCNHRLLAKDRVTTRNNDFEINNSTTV", "assay": "Calcium mobilisation (FLIPR Calcium 6 fluorescence) receptor activation assay, Sf9 cells stably expressing DretNmU-Ra", "type": "cell-based", "conditions": "for Binding activity (receptor response, ∆fluorescence) at single concentration: 500 nM peptide, three to four replicates, result in words", "description": "as §1, §2, §3"}, "[3]": {"system": "Deroceras reticulatum", "assay": "Injection bioassay of the peptides in the slug", "type": "in vivo", "conditions": "n = 4; for Atypical behaviors after injection: 10 nmol peptide in 5 μl water injected into the foot, observed for initial 30 min, compared with water control; for Mortality after 3 days: 10 nmol peptide in 5 μl water injected into the foot of adult slugs, 18 °C", "description": "Two peptides, QPPLPRYa and QPPVPRYa, were dissolved in purified water to obtain a 2 mM concentration and individually injected into the adult slugs (270–520 mg in weight). A Hamilton syringe was used to inject a dose of 10 nmol peptide in 5 μl water or water only for control into the posterior part of the foot of the slug (n = 4). The foot was chosen as the injection site in order to avoid possible damage to internal organs, which are primarily located underneath the mantle. […] Since the treated slugs secreted a large amount of the defensive mucus, weight loss was assessed by weighing the slugs on a VWR B2-Series Analytical Balance immediately before the treatment and again 3 days later. Post treatment weights were obtained after slugs were placed under wet conditions (slugs placed in a ventilated 8 oz plastic container lined with damp tissue paper) or under dry conditions (same container type without damp tissue paper). Slugs were placed under these conditions approximately 30 min after injection. These plastic containers were maintained in a growth chamber (Thermo Scientific Precision Model 818) at 18 °C and 12 h photoperiod. Statistical analysis was performed by One-way ANOVA followed by Dunnett’s multiple comparisons test using GraphPad Prism version 8.0 (GraphPad Software, CA, USA)."}, "[4]": {"conditions": "Sf9 cells stably expressing DretNmU-Rb"}, "[5]": {"conditions": "Sf9 cells stably expressing DretNmU-Ra"}, "[6]": {"conditions": "Sf9 cells stably expressing DretNmU-Rb, calcium fluorescence, threefold serial dilutions 8 pM to 1.5 μM, four to five replicates from independent assays, each the mean of four wells, read-out: EC50, normalized concentration-response"}, "[7]": {"conditions": "Sf9 cells stably expressing DretNmU-Ra, calcium fluorescence, threefold serial dilutions 8 pM to 1.5 μM, four to five replicates from independent assays, each the mean of four wells, read-out: EC50, normalized concentration-response"}}, "note": "Entries after “also recorded” stand apart in the source; their conditions may differ. Where two headings read alike, the source gives them in different places. Where a SMILES comes first, the peptide text is derived from it."}
{"compound": "PLPRYa [N-terminally truncated pentapeptide of QPPLPRYa]", "values": [{"measurement": "Binding activity (receptor response, ∆fluorescence) at single concentration", "setting": "[1]; [4]", "result": "gradual decrease of the binding ability"}, {"measurement": "Binding activity (receptor response, ∆fluorescence) at single concentration", "setting": "[2]; [5]", "result": "gradual decrease of the binding ability"}]}
{"compound": "CC(C)C[C@H](NC(=O)[C@@H]1CCCN1C(=O)[C@@H]1CCCN1C(=O)[C@@H](N)CCC(N)=O)C(=O)N1CCC[C@H]1C(=O)N[C@@H](CCCNC(=N)N)C(=O)N[C@@H](Cc1ccc(O)cc1)C(N)=O", "note": "[QPPLPRYa] (H-QPPLPRY-NH2; N-terminus assumed)", "values": [{"measurement": "Atypical behaviors after injection", "setting": "[3]", "result": "triggered a series of distinct, atypical behaviors"}, {"measurement": "Mortality after 3 days", "setting": "[3]; dry conditions", "result": 100, "unit": "%"}, {"measurement": "Mortality after 3 days", "setting": "[3]; wet conditions", "result": 50, "unit": "%"}, {"measurement": "EC50", "setting": "[1]", "result": 4.1, "unit": "nM"}, {"measurement": "Binding activity (receptor response, ∆fluorescence) at single concentration", "setting": "[1]; [4]", "result": "evoked distinct binding"}, {"measurement": "EC50", "setting": "[2]", "result": 1.4, "unit": "nM"}, {"measurement": "Binding activity (receptor response, ∆fluorescence) at single concentration", "setting": "[2]; [5]", "result": "evoked distinct binding"}]}
{"compound": "CC[C@H](C)[C@H](NC(=O)[C@H](CCCNC(=N)N)NC(=O)[C@@H]1CCCN1C(=O)[C@H](CCCNC(=N)N)NC(=O)[C@@H]1CCCN1C(=O)[C@@H](NC(=O)[C@H](C)N)C(C)C)C(N)=O", "note": "[AVPRPRIa] (H-AVPRPRI-NH2; N-terminus assumed)", "values": [{"measurement": "Binding activity (receptor response, ∆fluorescence) at single concentration", "setting": "[1]; [4]", "result": "evoked distinct binding"}, {"measurement": "EC50", "setting": "[1]; [6]", "result": 12.4, "unit": "nM"}, {"measurement": "Binding activity (receptor response, ∆fluorescence) at single concentration", "setting": "[2]; [5]", "result": "evoked distinct binding"}, {"measurement": "EC50", "setting": "[2]; [7]", "result": 6.4, "unit": "nM"}]}
{"compound": "CC(C)C[C@H](NC(=O)[C@@H]1CCCN1C(=O)[C@@H]1CCCN1C(=O)[C@@H](N)CCC(N)=O)C(=O)N1CCC[C@H]1C(=O)N[C@@H](CCCNC(=N)N)C(=O)N[C@@H](Cc1ccccc1)C(N)=O", "note": "[QPPLPRFa] (H-QPPLPRF-NH2; N-terminus assumed)", "values": [{"measurement": "Binding activity (receptor response, ∆fluorescence) at single concentration", "setting": "[1]; [4]", "result": "retained normal activity"}, {"measurement": "EC50", "setting": "[1]; [6]", "result": 128, "unit": "nM"}, {"measurement": "Binding activity (receptor response, ∆fluorescence) at single concentration", "setting": "[2]; [5]", "result": "retained normal activity"}, {"measurement": "EC50", "setting": "[2]; [7]", "result": 55.1, "unit": "nM"}]}
{"compound": "LPRYa [N-terminally truncated tetra-peptide of QPPLPRYa]", "values": [{"measurement": "Binding activity (receptor response, ∆fluorescence) at single concentration", "setting": "[1]; [4]", "result": "all activity was lost"}, {"measurement": "Binding activity (receptor response, ∆fluorescence) at single concentration", "setting": "[2]; [5]", "result": "all activity was lost"}]}
{"compound": "QPPLPAYa [modified QPPLPRYa, alanine replacement of R6]", "values": [{"measurement": "Binding activity (receptor response, ∆fluorescence) at single concentration", "setting": "[1]; [4]", "result": "almost completely disappeared"}, {"measurement": "Binding activity (receptor response, ∆fluorescence) at single concentration", "setting": "[2]; [5]", "result": "almost completely disappeared"}]}
{"compound": "QPPLPRAa [modified QPPLPRYa, alanine replacement of Y7]", "values": [{"measurement": "Binding activity (receptor response, ∆fluorescence) at single concentration", "setting": "[1]; [4]", "result": "almost completely disappeared"}, {"measurement": "Binding activity (receptor response, ∆fluorescence) at single concentration", "setting": "[2]; [5]", "result": "almost completely disappeared"}]}
{"compound": "QPPLARYa [modified QPPLPRYa, alanine replacement of P5]", "values": [{"measurement": "Binding activity (receptor response, ∆fluorescence) at single concentration", "setting": "[1]; [4]", "result": "almost completely disappeared"}, {"measurement": "Binding activity (receptor response, ∆fluorescence) at single concentration", "setting": "[2]; [5]", "result": "almost completely disappeared"}]}
{"compound": "QPPLPRWa [modified QPPLPRYa, C-terminal Y replaced with W]", "values": [{"measurement": "Binding activity (receptor response, ∆fluorescence) at single concentration", "setting": "[1]; [4]", "result": "dramatically reduced in its binding activity; also recorded: activity was eliminated"}, {"measurement": "Binding activity (receptor response, ∆fluorescence) at single concentration", "setting": "[2]; [5]", "result": "dramatically reduced in its binding activity; also recorded: activity was eliminated"}]}
{"compound": "CC(C)[C@H](NC(=O)[C@@H]1CCCN1C(=O)[C@@H]1CCCN1C(=O)[C@@H](N)CCC(N)=O)C(=O)N1CCC[C@H]1C(=O)N[C@@H](CCCNC(=N)N)C(=O)N[C@@H](Cc1ccc(O)cc1)C(N)=O", "note": "[QPPVPRYa] (H-QPPVPRY-NH2)", "values": [{"measurement": "Atypical behaviors after injection", "setting": "[3]", "result": "triggered a series of distinct, atypical behaviors"}, {"measurement": "Mortality after 3 days", "setting": "[3]; dry conditions", "result": 50, "unit": "%"}, {"measurement": "Mortality after 3 days", "setting": "[3]; wet conditions", "result": 0, "unit": "%"}, {"measurement": "EC50", "setting": "[1]", "result": 12.7, "unit": "nM"}, {"measurement": "Binding activity (receptor response, ∆fluorescence) at single concentration", "setting": "[1]; [4]", "result": "evoked distinct binding"}, {"measurement": "EC50", "setting": "[2]", "result": 6.4, "unit": "nM"}, {"measurement": "Binding activity (receptor response, ∆fluorescence) at single concentration", "setting": "[2]; [5]", "result": "evoked distinct binding"}]}
{"compound": "CC(C)C[C@H](NC(=O)[C@@H]1CCCN1C(=O)[C@@H]1CCCN1C(=O)[C@@H](N)CC(N)=O)C(=O)N1CCC[C@H]1C(=O)N[C@@H](CCCNC(=N)N)C(=O)N[C@@H](Cc1ccc(O)cc1)C(N)=O", "note": "[NPPLPRYa] (H-NPPLPRY-NH2; N-terminus assumed)", "values": [{"measurement": "EC50", "setting": "[1]; [6]", "result": 25.1, "unit": "nM"}, {"measurement": "EC50", "setting": "[2]; [7]", "result": 32.2, "unit": "nM"}]}
